{"source": "ChEMBL document CHEMBL3393059", "about": "“Optimisation of in silico derived 2-aminobenzimidazole hits as unprecedented selective kappa opioid receptor agonists” (Bioorg Med Chem Lett, 2015)", "type_in_all_cases": "ADME, organism-based", "set-up_in_all_cases": "dose 30 mg/kg, route oral", "key": {"[1]": {"test": "Cmax in mouse at 30 mg/kg, po", "conditions": "in vivo"}, "[2]": {"test": "Half life in mouse at 30 mg/kg, po", "conditions": "in vivo"}, "[3]": {"test": "AUC (0 to time) in mouse at 30 mg/kg, po", "conditions": "plasma"}}, "data": [{"smiles": "CN(C(=O)C(c1ccccc1)c1ccccc1)[C@H](CN1CC[C@H](O)C1)c1ccccc1", "note": "[ASIMADOLINE]", "values": [{"measurement": "Cmax", "setting": "[1]", "value": 507, "unit": "ng/mL"}, {"measurement": "half-life", "setting": "[2]", "value": 30, "unit": "min"}, {"measurement": "AUC", "setting": "[3]", "value": 493, "unit": "ng·h/mL"}]}]}
